Source: patent publication US20080214563A1, “Benzimidazole Thiophene Compounds As Plk Modulators” (priority 2005, published 2008)

What was measured:
Type in all cases: cell-based
[1] = test system: MCF7; assay: Cell-Titer Glo Cell Growth Inhibition Assay, MCF7; conditions: Homo sapiens, CellTiter-Glo, 72 h, read-out: CTG MCF7 IC50
Protocol: (§1) A549-L (human lung), BT474 (human breast), Colo 205 (human colon), H1299 (human lung), Hela (human cervix), HCT-116 (human colon), HN5 (human head and neck), HT29 (human colon), LNCap (human prostate), MCF7 (human breast), MDA-MB468 (human breast), MX-1 (human breast), RPMI 8226 (human peripheral blood), SKOV3 (human ovary) and P388 (murine leukemia) cell lines were cultured in RPMI1640 containing 10% fetal bovine serum at 37° C. in a 5% CO2 incubator. Cell lines were split into T75 flasks (Falcon #353136) two to three days prior to assay set up at density which yields approximately 70-80% confluency at time of harvest for assay. Cells were harvested using 0.25% trypsin with EDTA (Glibco/Invitrogen #25200-056), Cell counts were performed on cell suspensions using Trypan Blue exclusion staining, cells were then plated in 105 uL of culture media per well at the following densities in 96 well Costar #3916 black flat bottom plates: All human cell lines were plated at 500 cells/well. P388 were plated at 250 cells/well. All plates were placed at 5% CO2 37° C. overnight and then test compounds were added the following day. One plate of each cell type is treated with CellTiter-Glo (Promega #G7573) for a day 0 proliferation measurement and read as described below. […]

[2] = test system: HN5; assay: Cell-Titer Glo Cell Growth Inhibition Assay, HN5; conditions: Homo sapiens, CellTiter-Glo, 72 h, read-out: CTG HN5 IC50
Protocol: as §1

[3] = test system: Hela; assay: Cell-Titer Glo Cell Growth Inhibition Assay, Hela; conditions: Homo sapiens, CellTiter-Glo, 72 h, read-out: CTG Hela IC50
Protocol: as §1

[4] = test system: H1299; assay: Cell-Titer Glo Cell Growth Inhibition Assay, H1299; conditions: Homo sapiens, NCI-H1299, CellTiter-Glo, 72 h, read-out: CTG H1299 IC50
Protocol: as §1

[5] = test system: MDA-MB468; assay: Cell-Titer Glo Cell Growth Inhibition Assay, MDA-MB468; conditions: Homo sapiens, MDA-MB-468, CellTiter-Glo, 72 h, read-out: CTG MDA-MB468 IC50
Protocol: as §1

[6] = test system: RPMI 8226; assay: Cell-Titer Glo Cell Growth Inhibition Assay, RPMI 8226; conditions: Homo sapiens, CellTiter-Glo, 72 h, read-out: CTG RPMI 8226 IC50
Protocol: as §1

[7] = test system: BT474; assay: Cell-Titer Glo Cell Growth Inhibition Assay, BT474; conditions: Homo sapiens; CellTiter-Glo, 72 h, BT 474; read-out: CTG BT 474 IC50
Protocol: as §1

[8] = test system: LNCap; assay: Cell-Titer Glo Cell Growth Inhibition Assay, LNCap; conditions: Homo sapiens, CellTiter-Glo, 72 h, read-out: CTG LNCap IC50
Protocol: as §1

Measured: IC50

C[C@@H](Oc1cc(-n2cnc3cc(-c4cnn(C)c4)ccc32)sc1C(N)=O)c1ccccc1Cl [Example 9, 3-{[(1R)-1-(2-Chlorophenyl)ethyl]oxy}-5-[5-(1-methyl-1H-pyrazol-4-yl)-1H-benzimidazol-1-yl]-2-thiophenecarboxamide]
< 100 nM: all assays above
